How the values were obtained:
[1] = system: Puccinia recondita f. Sp. Tritici; experiment: Fungicidal activity against Puccinia recondita f. sp. tritici / wheat / leaf disc preventative (brown rust); type: in vivo; conditions: foliar, 200 ppm in the applied formulation, wheat leaf segments, preventative, compared to untreated control leaf disks, read-out: disease control
In short: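 Preventative leaf-segment test, wheat cv. Kanzler on water agar. Spray compound at 200 ppm, inoculate with spores 1 day later; 19° C., 75% rh, 12/12 h light. Read-out: % disease control vs untreated, 7 to 9 days after application.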

[2] = system: Puccinia recondita f. Sp. Tritici; experiment: Fungicidal activity against Puccinia recondita f. sp. tritici / wheat / leaf disc curative (brown rust); type: in vivo; conditions: foliar, 24 h, 200 ppm in the applied formulation, wheat leaf segments, curative (applied 1 day after inoculation), compared to untreated control leaf disks, read-out: disease control
In short: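 Curative test on wheat leaf segments (cv. Kanzler) on agar, inoculated with spore suspension and held dark at 19° C, 75% RH; formulated compound in water applied 1 day after inoculation. Incubated at 19° C, 75% RH, 12 h light/12 h dark; percent disease control versus untreated scored 6 to 8 days after application.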

Phakopsora Pachyrhizi = experiment: Fungicidal activity against Phakopsora pachyrhizi / soybean / leaf disc preventative (Asian soybean rust); type: in vivo; conditions: foliar, 200 ppm in the applied formulation, soybean leaf disks, compared to untreated control leaf disks, read-out: disease control
In short: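 Preventative soybean leaf-disc test: discs on water agar sprayed with diluted formulated compound, inoculated one day later with spores on the lower surface. Held 24–36 h dark at 20°C, 75% rh, then 12 h light/day; percent disease control versus untreated discs scored 12–14 days after application.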

[3] = system: Glomerella lagenarium (Colletotrichum lagenarium); experiment: Fungicidal activity against Glomerella lagenarium (Colletotrichum lagenarium) liquid culture / cucumber / preventative (anthracnose); type: cell-based; conditions: Colletotrichum orbiculare; 20 ppm in the applied formulation; liquid culture (PDB), growth inhibition measured photometrically after 3 to 4 days; compared to untreated control; read-out: disease control
In short: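 Photometric read-out of fungal growth after 2–7 days, expressed as percent antifungal activity versus untreated check. Cryo-stored conidia in PDB; compound at 20 ppm; dark, 24 °C, 96% RH.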

COC(C)(C)C(=O)N(C)Cc1ccc(-c2noc(C(F)(F)F)n2)cc1 [Compound 1.782, 2-methoxy-N,2-dimethyl-N-[[4-[5-(trifluoromethyl)-1,2,4-oxadiazol-3-yl]phenyl]methyl]-propanamide]
≥ 80%: pest or weed control at 200 ppm [1] | pest or weed control at 200 ppm [2] | pest or weed control at 200 ppm (Phakopsora Pachyrhizi) | inhibition of growth at 20 ppm [3]

COCCC(=O)N(Cc1ccc(-c2noc(C(F)(F)F)n2)cc1)C1CC1 [Compound 1.106, N-cyclopropyl-3-methoxy-N-[[4-[5-(trifluoromethyl)-1,2,4-oxadiazol-3-yl]phenyl]methyl]-propanamide]
≥ 80%: pest or weed control at 200 ppm [1] | pest or weed control at 200 ppm [2] | pest or weed control at 200 ppm (Phakopsora Pachyrhizi) | inhibition of growth at 20 ppm [3]

CON(Cc1ccc(-c2noc(C(F)(F)F)n2)cc1)C(=O)N(C)C1COC1 [Compound 3.59, 1-methoxy-3-methyl-3-(oxetan-3-yl)-1-[[4-[5-(trifluoromethyl)-1,2,4-oxadiazol-3-yl]phenyl]methyl]urea]
≥ 80%: pest or weed control at 200 ppm [1] | pest or weed control at 200 ppm [2] | pest or weed control at 200 ppm (Phakopsora Pachyrhizi) | inhibition of growth at 20 ppm [3]

CCCN(Cc1ccc(-c2noc(C(F)(F)F)n2)cc1)C(=O)C(C)CC (centres unmarked) [Compound 1.659, 2-methyl-N-propyl-N-[[4-[5-(trifluoromethyl)-1,2,4-oxadiazol-3-yl]phenyl]methyl]-butanamide]
≥ 80%: pest or weed control at 200 ppm [1] | pest or weed control at 200 ppm [2] | pest or weed control at 200 ppm (Phakopsora Pachyrhizi) | inhibition of growth at 20 ppm [3]

CON(Cc1ccc(-c2noc(C(F)(F)F)n2)cc1)C(=O)Nc1ccccc1 [Compound 3.8, 1-methoxy-3-phenyl-1-[[4-[5-(trifluoromethyl)-1,2,4-oxadiazol-3-yl]phenyl]methyl]urea]
≥ 80%: pest or weed control at 200 ppm [1] | pest or weed control at 200 ppm [2] | pest or weed control at 200 ppm (Phakopsora Pachyrhizi) | inhibition of growth at 20 ppm [3]

COCCC(=O)N(Cc1ccc(-c2noc(C(F)(F)F)n2)cc1)C(C)C [Compound 1.674, N-isopropyl-3-methoxy-N-[[4-[5-(trifluoromethyl)-1,2,4-oxadiazol-3-yl]phenyl]methyl]-propanamide]
≥ 80%: pest or weed control at 200 ppm [1] | pest or weed control at 200 ppm [2] | pest or weed control at 200 ppm (Phakopsora Pachyrhizi) | inhibition of growth at 20 ppm [3]

C=CCN(Cc1ccc(-c2noc(C(F)(F)F)n2)cc1)C(=O)C1CCC1 [Compound 1.478, N-allyl-N-[[4-[5-(trifluoromethyl)-1,2,4-oxadiazol-3-yl]phenyl]methyl]-cyclobutane-carboxamide]
≥ 80%: pest or weed control at 200 ppm [1] | pest or weed control at 200 ppm [2] | pest or weed control at 200 ppm (Phakopsora Pachyrhizi) | inhibition of growth at 20 ppm [3]

CCN(Cc1ccc(-c2noc(C(F)(F)F)n2)cc1)C(=O)C1CC1 [Compound 1.514, N-ethyl-N-[[4-[5-(trifluoromethyl)-1,2,4-oxadiazol-3-yl]phenyl]methyl]-cyclopropane-carboxamide]
≥ 80%: pest or weed control at 200 ppm [1] | pest or weed control at 200 ppm [2] | pest or weed control at 200 ppm (Phakopsora Pachyrhizi) | inhibition of growth at 20 ppm [3]

CON(Cc1ccc(-c2noc(C(F)(F)F)n2)cc1F)C(=O)C1CCCO1 (centres unmarked) [Compound 1.563, N-[[2-fluoro-4-[5-(trifluoromethyl)-1,2,4-oxadiazol-3-yl]phenyl]methyl]-N-methoxy-tetrahydrofuran-2-carboxamide]
≥ 80%: pest or weed control at 200 ppm [1] | pest or weed control at 200 ppm [2] | pest or weed control at 200 ppm (Phakopsora Pachyrhizi) | inhibition of growth at 20 ppm [3]

CON(Cc1ccc(-c2noc(C(F)(F)F)n2)cc1)C(=O)C1CC1C (centres unmarked) [Compound 1.40, N-methoxy-2-methyl-N-[[4-[5-(trifluoromethyl)-1,2,4-oxadiazol-3-yl]phenyl]methyl]-cyclopropane-carboxamide]
≥ 80%: pest or weed control at 200 ppm [1] | pest or weed control at 200 ppm [2] | pest or weed control at 200 ppm (Phakopsora Pachyrhizi) | inhibition of growth at 20 ppm [3]

CON(Cc1ccc(-c2noc(C(F)(F)F)n2)cc1)C(=O)CC(C)(C)C [Compound 1.41, N-methoxy-3,3-dimethyl-N-[[4-[5-(trifluoromethyl)-1,2,4-oxadiazol-3-yl]phenyl]methyl]-butanamide]
≥ 80%: pest or weed control at 200 ppm [1] | pest or weed control at 200 ppm [2] | pest or weed control at 200 ppm (Phakopsora Pachyrhizi) | inhibition of growth at 20 ppm [3]

CCC(C)N(Cc1ccc(-c2noc(C(F)(F)F)n2)cc1)C(=O)C1CCCCO1 (centres unmarked) [Compound 1.368, N-sec-butyl-N-[[4-[5-(trifluoromethyl)-1,2,4-oxadiazol-3-yl]phenyl]methyl]-tetrahydropyran-2-carboxamide]
≥ 80%: pest or weed control at 200 ppm [1] | pest or weed control at 200 ppm [2] | pest or weed control at 200 ppm (Phakopsora Pachyrhizi) | inhibition of growth at 20 ppm [3]

CON(Cc1ccc(-c2noc(C(F)(F)F)n2)cc1)C(=O)CO [Compound 1.778, 2-hydroxy-N-methoxy-N-[[4-[5-(trifluoromethyl)-1,2,4-oxadiazol-3-yl]phenyl]methyl]-acetamide]
≥ 80%: pest or weed control at 200 ppm [1] | pest or weed control at 200 ppm [2] | pest or weed control at 200 ppm (Phakopsora Pachyrhizi) | inhibition of growth at 20 ppm [3]

CON(Cc1ccc(-c2noc(C(F)(F)F)n2)cn1)C(=O)C1CCCO1 (centres unmarked) [Compound 1.569, N-methoxy-N-[[5-[5-(trifiuoromethyl)-1,2,4-oxadiazol-3-yl]-2-pyridyl]methyl]-tetrahydrofuran-2-carboxamide]
≥ 80%: pest or weed control at 200 ppm [1] | pest or weed control at 200 ppm [2] | pest or weed control at 200 ppm (Phakopsora Pachyrhizi) | inhibition of growth at 20 ppm [3]

C=C(C)C(=O)N(Cc1ccc(-c2noc(C(F)(F)F)n2)cc1)OC [Compound 1.45, N-methoxy-2-methyl-N-[[4-[5-(trifluoromethyl)-1,2,4-oxadiazol-3-yl]phenyl]methyl]-prop-2-enamide]
≥ 80%: pest or weed control at 200 ppm [1] | pest or weed control at 200 ppm [2] | pest or weed control at 200 ppm (Phakopsora Pachyrhizi) | inhibition of growth at 20 ppm [3]

C=CCCC(=O)N(Cc1ccc(-c2noc(C(F)(F)F)n2)cc1)OC [Compound 1.17, N-methoxy-N-[[4-[5-(trifluoromethyl)-1,2,4-oxadiazol-3-yl]phenyl]methyl]-pent-4-enamide]
≥ 80%: pest or weed control at 200 ppm [1] | pest or weed control at 200 ppm [2] | pest or weed control at 200 ppm (Phakopsora Pachyrhizi) | inhibition of growth at 20 ppm [3]

CCC(C)N(Cc1ccc(-c2noc(C(F)(F)F)n2)cc1)C(=O)C1OCCO1 (centres unmarked) [Compound 1.403, N-sec-butyl-N-[[4-[5-(trifluoromethyl)-1,2,4-oxadiazol-3-yl]phenyl]methyl]-1,3-dioxolane-2-carboxamide]
≥ 80%: pest or weed control at 200 ppm [1] | pest or weed control at 200 ppm [2] | pest or weed control at 200 ppm (Phakopsora Pachyrhizi) | inhibition of growth at 20 ppm [3]

CC(C)C(=O)N(Cc1ccc(-c2noc(C(F)(F)F)n2)cc1)C1COC1 [Compound 1.738, 2-methyl-N-(oxetan-3-yl)-N-[[4-[5-(trifiuoromethyl)-1,2,4-oxadiazol-3-yl]phenyl]methyl]-propanamide]
≥ 80%: pest or weed control at 200 ppm [1] | pest or weed control at 200 ppm [2] | pest or weed control at 200 ppm (Phakopsora Pachyrhizi) | inhibition of growth at 20 ppm [3]

CCC(C)C(=O)N(C)Cc1ccc(-c2noc(C(F)(F)F)n2)cc1 (centres unmarked) [Compound 1.525, N.2-dimethyl-N-[[4-[5-(trifluoromethyl)-1,2,4-oxadiazol-3-yl]phenyl]methyl]-butanamide]
≥ 80%: pest or weed control at 200 ppm [1] | pest or weed control at 200 ppm [2] | pest or weed control at 200 ppm (Phakopsora Pachyrhizi) | inhibition of growth at 20 ppm [3]

C#CCCC(=O)N(CC#C)Cc1ccc(-c2noc(C(F)(F)F)n2)cc1 [Compound 1.154, N-prop-2-ynyl-N-[[4-[5-(trifluoromethyl)-1,2.4-oxadiazol-3-yl]phenyl]methyl]-pent-4-ynamide]
≥ 80%: pest or weed control at 200 ppm [1] | pest or weed control at 200 ppm [2] | pest or weed control at 200 ppm (Phakopsora Pachyrhizi) | inhibition of growth at 20 ppm [3]

C#CCN(Cc1ccc(-c2noc(C(F)(F)F)n2)cc1)C(=O)CC#N [Compound 1.199, 2-cyano-N-prop-2-ynyl-N-[[4-[5-(trifluoromethyl)-1,2,4-oxadiazol-3-yl]phenyl]methyl]-acetamide]
≥ 80%: pest or weed control at 200 ppm [1] | pest or weed control at 200 ppm [2] | pest or weed control at 200 ppm (Phakopsora Pachyrhizi) | inhibition of growth at 20 ppm [3]

CN(Cc1ccc(-c2noc(C(F)(F)F)n2)cc1)C(=O)C1CC1F (centres unmarked) [Compound 1.529, 2-fluoro-N-methyl-N-[[4-[5-(trifluoromethyl)-1,2,4-oxadiazol-3-yl]phenyl]methyl]-cyclopropane-carboxamide]
≥ 80%: pest or weed control at 200 ppm [1] | pest or weed control at 200 ppm [2] | pest or weed control at 200 ppm (Phakopsora Pachyrhizi) | inhibition of growth at 20 ppm [3]

O=C(C1CCCC1)N(Cc1ccc(-c2noc(C(F)(F)F)n2)cc1)C1CC1 [Compound 1.100, N-cyclopropyl-N-[[4-[5-(trifIuoromethyl)-1,2,4-oxadiazol-3-yl]phenyl]methyl]-cyclopentane-carboxamide]
≥ 80%: pest or weed control at 200 ppm [1] | pest or weed control at 200 ppm [2] | pest or weed control at 200 ppm (Phakopsora Pachyrhizi) | inhibition of growth at 20 ppm [3]

— patent US11180462B2, “Microbiocidal oxadiazole derivatives” (SYNGENTA PARTICIPATIONS AG, priority 2015, dated 2021)
